In patent publication EP3891153B1, “NAPHTHALIMIDOFURANS FOR APPLICATIONS IN MOLECULAR BIOLOGY” (Univerzita Karlova, 1. Lékarská Fakulta, priority 2018, dated 2020):

Assay: UV/VIS and fluorescence studies (spectral properties of the probes in four solvents)
Format: physicochemical
Settings: for fluorescence intensities: compared with probes 2 and 4 with pyranone motive; for Absorbance maxima (nm) / Emission maxima (nm): 1 µM or 0,1 µM
Method: Spectral properties of fluorescent probes 2, 4, 6, 8 and 10 (2 and 4 are for reference only) Spectral characteristics of probes were obtained by using a UV/VIS and fluorescence studies. The probes were measured in four solvents (DMSO, methanol, ethanol and phosphate buffer). Each LysoSers was at first dissolved in DMSO 1mM stock solution which was diluted to a final concentration 1 µM or 0,1 µM.
All prepared probes have absorption maximum in the ultraviolet range of 350-400 nm and emission maximum in the range of 400 to 450 nm. […] Table 1. Absorption and emission maxima of probes 2, 4, 6, 8 and 10 in different solvents (probes 2 and 4 are for reference only)

Structure (SMILES) | fluorescence intensities | Absorbance maxima (nm) (solvent DMSO) | Emission maxima (nm) (solvent DMSO) | Absorbance maxima (nm) (solvent EtOH) | Emission maxima (nm) (solvent EtOH) | Absorbance maxima (nm) (solvent MeOH) | Emission maxima (nm) (solvent MeOH) | Absorbance maxima (nm) (solvent PBS) | Emission maxima (nm) (solvent PBS)
CCCCCCN1C(=O)c2cccc3c2c(cc2oc(C(=O)NCCN(C)C)cc23)C1=O [Probe 6] | higher fluorescence intensities | 373 | 424 | 376 | 422 | 373 | 421 | 373 | 429
CCCCCCN1C(=O)c2cccc3c2c(cc2oc(=O)c(C(=O)NCCN(C)C)cc23)C1=O [Probe 2] |  | 379 | 440 | 388 | 448 | 387 | 442 | 389 | 448
CCCCCCN1C(=O)c2cccc3c2c(cc2cc(C(=O)NCCN(C)C)oc23)C1=O [Probe 8] | higher fluorescence intensities | 368 | 416 | 341 | 415 | 341 | 416 | 360 | 428
CCCCCCN1C(=O)c2cccc3c2c(cc2cc(C(=O)NCCN(C)C)c(=O)oc23)C1=O [Probe 4] |  | 368 | 432 | 319 | 434 | 317 | 435 | 320 | 437
CN(C)CCNC(=O)c1cc2c(cc3c4c(cccc42)C(=O)N(C)C3=O)o1 [Probe 10] | higher fluorescence intensities | 377 | 435 | 365 | 410 | 372 | 420 | 377 | 431
